Data as given in US20150025012A1, “METHODS AND COMPOSITIONS FOR IDENTIFICATION, ASSESSMENT AND TREATMENT OF CANCERS ASSOCIATED WITH HEDGEHOG SIGNALING” (Infinity Pharmaceuticals, Inc., priority 2010, published 2015).
“Also recorded” adds a separate entry of the source.

Test system: subcutaneous L3.6pl tumor model
Assay: Tumor perfusion by contrast enhanced high frequency ultrasound
Format: in vivo, mice
Conditions: IPI-926 orally 40 mg/kg for seven days, compared to vehicle
Description: The L3.6pl tumor cell line was injected subcutaneously and treatment with IPI-926 was initiated. IPI-926 or vehicle was administered orally at 40 mg/kg for seven consecutive days. On the eighth day, animals were subjected to ultrasound image capture and analysis using the Vevo 2100 high frequency ultrasound instrument (Visualsonics) in conjunction with contrast enhancement (microbubbles) during the imaging procedure. Contrast agent was administered by iv administration during the imaging procedure and quantified by measuring echogenic signal derived from the contrast agent over time.

Question: With `CC1=C2C[C@H]3[C@@H](CC[C@@H]4C[C@H](NS(C)(=O)=O)CC[C@@]43C)[C@@H]2CC[C@@]2(C1)O[C@@H]1C[C@H](C)CN[C@H]1[C@H]2C` [IPI-926] as the molecule, how does the “time to reach peak contrast” value read?
Answer: decrease; also recorded: change
